Reference: US20130224223A1, “Compositions and Methods for Treating Neurological Disorders” (GEORGIA REGENTS UNIVERSITY, priority 2007, published 2013)

Tests used:
cortical slices = assay: [3H]GABA release from prefrontal cortical slices; format: cell-based, mice; conditions: 20 mM KCl
Experimental: FIG. 2A is a line graph of [^3H]GABA release fraction/total fraction versus time (mins). Cortical slices were preloaded with [^3H]GABA for 30 min in the presence of b-alanine (1 mM), an inhibitor of [^3H]GABA uptake by glial cells, aminooxyacetic acid (0.1 mM), an inhibitor of GABA degradation, and nipecotic acid (1 mM), an inhibitor of the GABA transporter in neurons. Basal and depolarization (20 mM KCl)-evoked release of [^3H]GABA were monitored sequentially. Controls (open circles) and NRG1 (closed circles). FIG. 2B is a line graph of percent [^3H]GABA release versus NRG1 concentration (nM). Basal (open circles) K+ evoked (closed circles). […] FIG. 2D is a line graph of cumulative counts versus mIPSC amplitude (pA). Controls (open circles) and NRG1 (closed circles). FIG. 2E is a line graph of cumulative counts versus mIPSC interevent interval (ms). Controls (open circles) and NRG1 (closed circles). FIG. 2F is a bar graph of mIPSC (percent) in control and NRG1 treated pyramidal neurons in prefrontal cortical slices (n=12). Amplitude (clear) and Frequencies (hatched). FIG. 2G is a bar graph of percent eIPSC amplitude in prefrontal cortical slices treated with NRG1 versus control or washout. n=12, *p<0.01. Representative eIPSCs of control, NRG1-treated, or NRG1-treated/washed slices are shown on top. FIG. 2H is a line graph of percent eIPSC amplitude versus NRG1 (nM). n=6, *p<0.05, **p<0.01. FIG. 2I is a bar graph of K^+ evoked [^3H]GABA release (percent) (left axis, clear rectangles) and eIPSC amplitude (percent) (right axis, hatched rectangles) in prefrontal cortical slices treated with NRG1, denature NRG1, or BDNF. n=8 for [^3H]GABA release; for eIPSCs, n=6 for control, NRG1, and denatured NRG1, and n=4 for BDNF. *p<0.05, #p<0.05; **p<0.05, ##<0.01.
NRG1 may regulate GABAergic neurotransmission. To test this hypothesis, the effects of NRG1 on GABA release in cortical slices were determined by both biochemical and electrophysiological approaches. Basal [^3H]GABA release was low, at a rate of 3.75±0.35% (n=8) of total radioactivity per 10 min (FIG. 2A). Treatment of slices with 20 mM KCl, a condition known to depolarize neurons, increased [^3H]GABA release by 2.5-3.5 folds within 10 min (FIG. 2A). NRG1 had no effect on basal [^3H]GABA release; by contrast, it increased depolarization-evoked GABA release in a dose-dependent manner (FIG. 2B). […] Furthermore, the NRG regulation remained unchanged in the presence of antagonists of metabotropic glutamate receptors, cholinergic receptors, serotonin receptors, adrenergic receptors and/or dopamine receptors. As a control, BDNF decreased depolarization-evoked GABA release and eIPSCs in cortical slices, in agreement with earlier studies (Canas, et al., Brain Res, 1016:72-78 (2004); Frerking, et al., J Neurophysiol, 80:3383-3386 (1998)).

[1] = system: prefrontal cortical slices; assay: eIPSC recording in prefrontal cortical slices; format: cell-based, mice
Experimental: Transverse prefrontal cortical slices (0.3 mm) were prepared from P28-P36 mice using a Vibroslice (Leica VT 10005) in the ice-cold solution, which contained 2.5 mM KCl, 1.25 mM NaH2PO4, 10 mM MgSO4, 0.5 mMCaCl2, 26 mM NaHCO3, 10 mM glucose, and 230 mM sucrose. Slices were allowed to recover for at least 2 hr in ACSF (1 hr at 34° C. followed by 1 hr at 22° C.) in a solution containing 126 mM NaCl, 2.5 mM KCl, 1.25 mM NaH2PO4, 2 mM MgSO4, 2 mM CaCl2, 26 mM NaHCO3, and 10 mM glucose. Slices were placed in the recording chamber and superfused (1.5 ml/min) with ACSF at 34° C. All solutions were saturated with 95% O2/5% CO2. Neurons were visualized with an IR-sensitive CCD camera with a 403 water-immersion lens (Zeiss, Axioskop2 Fsplus) and recorded using whole-cell voltage-clamp techniques (MultiClamp 7008 Amplifier, Digidata 1320A analog-to-digital converter) and pClamp 9.2 software (Axon Instruments). Glass pipettes were filled with the solution containing 125 mM Cs-gluconate, 10 mM CsCl, 1 mM MgCl2, 10 mM HEPES, 1 mM EGTA, 0.1 mM CaCl2, 10 mM sodium phosphocreatine, 4 mM Mg-ATP, 0.3 mM GTP, 0.2 mM leupeptin, and 5 mM lidocaine N-ethylchloride (QX314) (pH 7.2, with the osmolarity adjusted to 280 mOsm with sucrose). The resistance of pipettes was 2-3 MΩ For mIPSC recording, QX314 was omitted in the pipette filling solution, whereas […] was included in the superfusing solution. eIPSCs were generated with a two-concentric bipolar stimulating electrode ([…] pole separation; FHC, ME) positioned about […] from the neuron under recording. Single or paired pulses of 0.2 ms were delivered at 0.1 Hz and synchronized using a Mater-8 stimulator (A.M.P.I). The holding potential for both mIPSCs and eIPSCs was −65 mV. All experiments were done at 34° C. in the presence of 6-cyano-7-nitroquinoxaline-2,3-dione (CNQX, […]) and AP-5 ([…]) to block AMPA/NMDA receptors. Data were collected when series resistance fluctuated within 15% of initial values (8-15 MU), they were filtered at 2 kHz, and they were sampled at 10 kHz.

[2] = substance alone, no other exogenous agent, AG1478/AG879 5 mM [sic]

COc1cc2ncnc(Nc3cccc(Cl)c3)c2cc1OC [AG1478]
depolarization-evoked [3H]GABA release (cortical slices; [2]): decreased | NRG1-enhanced evoked GABA release (cortical slices; substance given with exogenous NRG1): prevented | evoked IPSCs (eIPSCs) [1, 2]: decreased | NRG1 potentiation of eIPSCs ([1]; substance given with exogenous NRG1 (5 nM)): prevented
